The values below come from ChEMBL document CHEMBL4011592, “Synthesis and evaluation of 7-substituted-5,6-dihydrobenzo[c]acridine derivatives as new c-KIT promoter G-quadruplex binding ligands” (Eur J Med Chem, 2017).

pIC50, pKd: −log10 of the molar value. The source made the active and inactive calls. The calls are words filed in the database; no cut-off is given here.

Assay [1] in a line: Binding affinity to biotinylated c-KIT1 G-quadruplex DNA (unknown origin) by SPR assay.
Assay [2] is described as follows: Selectivity ratio of Kd for biotinylated duplex DNA (unknown origin) to Kd for biotinylated c-KIT1 G-quadruplex DNA (unknown origin).
Assay [3] can be described thus: Binding affinity to biotinylated duplex DNA (unknown origin) by SPR assay. A general note: Surface plasmon resonance follows binding to a sensor surface in real time, without labels.
A short description of assay [4]: Binding affinity to F10T duplex DNA (unknown origin) assessed as change in melting temperature at 1 uM by FRET assay.
Assay [5] can be described thus: Binding affinity to 5'-FAM/3'-TAMARA labelled c-KIT2 G-quadruplex DNA (unknown origin) assessed as change in melting temperature at 1 uM by FRET assay.
Assay [6] is described as follows: Binding affinity to 5'-FAM/3'-TAMARA labelled c-KIT1 G-quadruplex DNA (unknown origin) assessed as change in melting temperature at 1 uM by FRET assay.
Assay [7] in a line: Binding affinity to F10T duplex DNA (unknown origin) assessed as change in melting temperature at 2 uM by FRET assay.
Assay [8] can be described thus: Binding affinity to 5'-FAM/3'-TAMARA labelled c-KIT1 G-quadruplex DNA (unknown origin) assessed as change in melting temperature at 2 uM by FRET assay.
In a further assay the test system is K562. Kind of assay: Cytotoxicity against human K562 cells after 48 hrs by MTT assay. The format is functional, cell-based. To be noted: K562, 48 h. (In general: Formazan colour is commonly taken as a measure of viable cells.)
In the next assay the test system is BJ. Kind of assay: Cytotoxicity against human BJ cells after 48 hrs by MTT assay. It counts as cell-based.
The next assay relates to HeLa. Kind of assay: Cytotoxicity against human HeLa cells after 48 hrs by MTT assay. It counts as functional, cell-based.
Assay [9] can be described thus: Binding affinity to 5'-FAM/3'-TAMARA labelled c-KIT1 G-quadruplex DNA (unknown origin) assessed as change in melting temperature at 2 uM in presence ds26 DNA by FRET assay.
For a further assay, the system named is A549. Kind of assay: Cytotoxicity against human A549 cells after 48 hrs by MTT assay. The format is functional, cell-based. To be noted: A549, 48 h.

A word on the pKd: it is the Kd on a negative log10 scale, so that one unit is a factor of ten. High values mean a small Kd, low ones a large Kd. Usually ΔTm stands for the change in melting temperature against a reference sample. By pIC50 is commonly meant the negative decadic logarithm of the IC50, by convention in mol/L. Low readings indicate a large IC50, high ones a small IC50. In the case of `COc1cc2c(cc1OC)-c1nc3ccccc3c(NCCCN3CCN(C)CC3)c1CC2`, the values for the pKd in [1] and in [3] were 5.55 and less than 4.70, respectively. Also, in assay [2], the Selectivity ratio was greater than 7.1. For the same compound, the ΔTm in assay [4] stood at 1.3 °C; in [5] it was 8.6 °C; in [6] it was 18.7 °C; in assay [7], 1.6 °C; in assay [8], 22.9 °C. Moreover, the pIC50 in the assay on K562 was 5.38; with BJ, 4.86; in the assay on HeLa, 5.02; with A549, 5.19. Also, in [9], the result was Active.
For `COc1cc2c(cc1OC)-c1c(cc3c(OCCCN4CCCCC4)c(OC)ccc3[n+]1C)CC2`, the values for the pKd in assay [1] and in [3] were 5.55 and less than 4.70, respectively. For the same compound, in assay [2], the Selectivity ratio was greater than 7.1. The ΔTm in [4] stood at 0.2 °C; in [5], 4.4 °C; in assay [6], 4.4 °C; in assay [7], 0.7 °C; in assay [8], 12.2 °C. Besides, the outcome in [9] was Active.
For the compound `COc1cc2c(cc1OC)-c1c(c(NCCCN(C)C)c3ccccc3[n+]1C)CC2`, the pKd in [1] was 5.24; in assay [3], less than 4.70. Further, the Selectivity ratio in [2] was greater than 3.4. In addition, the ΔTm in [4] came to 0.8 °C; in assay [5], 3.7 °C; in assay [6] it was 8.6 °C; in [7], 0.3 °C; in assay [8], 10.7 °C. The pIC50 with K562, with BJ, in the assay on HeLa and in the assay on A549 was less than 4.30 throughout. The result in [9] was Active.
For the compound `CCN(CC)CCNc1c2c(nc3ccccc13)-c1cc(OC)c(OC)cc1CC2`, the values for the pKd in assay [1] and in assay [3] were 5.57 and 5.23, respectively. Further, in [2], the Selectivity ratio is 2.2. Besides, the ΔTm in [4] was 0.6 °C; in assay [5], 6.5 °C; in [6], 9.8 °C; in [7], 0.9 °C; in assay [8], 15.7 °C. The pIC50 in the assay on K562 is 5.10; with BJ it was 4.64; with HeLa, 4.75; in the assay on A549, 5.24. The outcome in [9] was Active.
As for `COc1cc2c(cc1OC)-c1c(c(NCCCN3CCCC3)c3ccccc3[n+]1C)CC2`, the values for the pKd in assay [1] and in assay [3] were 5.48 and less than 4.70, respectively. Also, the Selectivity ratio in [2] is greater than 6.1. Besides, the ΔTm was determined as 1.1 °C in assay [4]; 4.7 °C in assay [5]; 10.7 °C in [6]; 0.3 °C in assay [7]; 14 °C in assay [8]. Also, the pIC50 in the assay on K562 is 4.72; in the assay on BJ it was less than 4.30; with HeLa, less than 4.30; with A549, less than 4.30. Moreover, in assay [9], the result was Active.
On to `CCN(CC)CCNc1c2c([n+](C)c3ccccc13)-c1cc(OC)c(OC)cc1CC2`, for which the pKd was 5.41 in assay [1] and less than 4.70 in assay [3]. Further, the Selectivity ratio in [2] was greater than 5.1. The ΔTm in [4] is 0.9 °C; in assay [5] it was 3.3 °C; in assay [6], 8.5 °C; in [7], 0.5 °C; in [8] it was 10.3 °C. For the same compound, the pIC50 in the assay on K562 is 4.60; in the assay with BJ, less than 4.30; in the assay with HeLa, less than 4.30; in the assay with A549, less than 4.30. In addition, in assay [9], the result was Active.
`COc1cc2c(cc1OC)-c1nc3ccccc3c(NCCN3CCN(C)CC3)c1CC2`: the pKd in [1] is 5.48; in assay [3], 4.77. Besides, the Selectivity ratio in [2] worked out at 5.2. Further, the ΔTm in [4] amounted to 1.7 °C; in assay [5], 9 °C; in assay [6] it was 17.4 °C; in assay [7] it was 2 °C; in [8], 22.6 °C. The pIC50 with K562 is 4.64; in the assay with BJ it was 5.10; with HeLa it was 5.28; with A549, 5.52. Also, the outcome in assay [9] was Active.
Turning to `COc1cc2c(cc1OC)-c1nc3ccccc3c(NCCCN3CCCCC3)c1CC2`, the pKd in assay [1] was 5.41; in assay [3], less than 4.70. In addition, in assay [2], the Selectivity ratio is greater than 5.1. The ΔTm was determined as 1.4 °C in assay [4]; 8.1 °C in assay [5]; 11.6 °C in assay [6]; 2.1 °C in assay [7]; 20.2 °C in [8]. Also, the pIC50 was 5.41 in the assay with K562, 4.91 in the assay on BJ, 5.00 in the assay with HeLa and 5.36 in the assay with A549. Moreover, the outcome in assay [9] was Active.
On to `COc1cc2c(cc1OC)-c1nc3ccccc3c(NCCCN(C)C)c1CC2`, for which the pKd in assay [1] was 5.46; in assay [3], less than 4.70. The Selectivity ratio in assay [2] was greater than 5.7. Besides, the ΔTm was 1.3 °C in assay [4]; 9 °C in assay [5]; 12.3 °C in assay [6]; 2.3 °C in assay [7]; 20.4 °C in assay [8]. Moreover, the pIC50 in the assay with K562 is 5.17; with BJ it was 5.38; in the assay with HeLa, 5.29; in the assay with A549, 5.44. Also, the result in assay [9] was Active.
For `COc1cc2c(cc1OC)-c1nc3ccccc3c(C(=O)NCCN3CCCC3)c1CC2`, the negative logarithm of the Kd (pKd) in assay [1] and in assay [3] was less than 4.70 each time. Also, the ΔTm in assay [4] is 0.1 °C; in [5] it was 0.6 °C; in assay [6], 2.2 °C; in [7], 0.6 °C; in assay [8], 3.4 °C. Moreover, the pIC50 with K562, in the assay on BJ, in the assay with HeLa and with A549 was less than 4.30 each time.
As for `COc1cc2c(cc1OC)-c1nc3ccccc3c(NCCCN3CCCC3)c1CC2`, the pKd in assay [1] is 5.54; in [3], less than 4.70. Also, in assay [2], the Selectivity ratio is greater than 6.9. For the same compound, the ΔTm was found to be 1.1 °C in assay [4]; 8.6 °C in assay [5]; 10.8 °C in assay [6]; 2.9 °C in assay [7]; 20.5 °C in assay [8]. Further, the pIC50 was 5.38 in the assay with K562, 5.17 with BJ, 5.37 in the assay with HeLa and 5.41 in the assay with A549. For the same compound, in assay [9], the outcome was Active.
In the case of `COc1cc2c(cc1OC)-c1nc3ccccc3c(C(=O)NCCCN3CCCCC3)c1CC2`, the pKd was 5.43 in assay [1] and less than 4.70 in assay [3]. Further, in assay [2], the Selectivity ratio was greater than 5.4. Further, the ΔTm in assay [4] turned out to be 0.3 °C; in [5], 0.6 °C; in assay [6], 3.3 °C; in [7] it was 0.6 °C; in assay [8], 5.2 °C. Further, the pIC50 in the assay on K562, in the assay on BJ, with HeLa and in the assay on A549 was less than 4.30 in each case.
Regarding `COc1cc2c(cc1OC)-c1nc3ccccc3c(NCCN3CCCC3)c1CC2`, the negative-log Kd (pKd) in assay [1] was 5.60; in [3], 5.11. In addition, the Selectivity ratio in assay [2] worked out at 3.1. Further, the ΔTm was 0.8 °C in [4]; 6.2 °C in assay [5]; 11.1 °C in assay [6]; 1.2 °C in [7]; 16.7 °C in [8]. Besides, the pIC50 was 5.32 with K562, 5.28 in the assay on BJ, 5.34 in the assay on HeLa and 5.55 in the assay on A549. Also, the outcome in assay [9] was Active.
For the compound `COc1cc2c(cc1OC)-c1nc3ccccc3c(NCCN3CCCCC3)c1CC2`, the negative-log Kd (pKd) in assay [1] was 5.11; in assay [3], less than 4.70. In [2], the Selectivity ratio was greater than 2.6. For the same compound, the ΔTm in [4] was found to be 0.1 °C; in assay [5] it was 2.6 °C; in assay [6], 4.7 °C; in assay [7] it was 0.2 °C; in assay [8] it was 7.8 °C. The pIC50 was 4.88 in the assay on K562, less than 4.30 with BJ, 4.40 with HeLa and 4.73 in the assay with A549. The result in assay [9] was Active.
Turning to `COc1cc2c(cc1OC)-c1nc3ccccc3c(NCCN(C)C)c1CC2`, the pKd was 5.38 in assay [1] and 5.03 in assay [3]. The Selectivity ratio in [2] was found to be 2.2. The ΔTm was found to be 0.7 °C in assay [4]; 6.7 °C in assay [5]; 12.1 °C in assay [6]; 0.9 °C in assay [7]; 16.4 °C in assay [8]. Besides, the pIC50 was 4.59 in the assay on K562, 4.72 in the assay with BJ, 4.93 in the assay with HeLa and 5.25 in the assay on A549. In addition, the result in [9] was Active.
As to `COc1cc2c(cc1OC)-c1nc3ccccc3c(Cl)c1CC2`, the pKd in assay [1] and in assay [3] was less than 4.70 in each case. The ΔTm in assay [4] is 0.7 °C; in [5] it was 0.1 °C; in [6] it was 0.1 °C; in assay [7], 0.1 °C; in assay [8] it was 0.2 °C.
`CCN(CC)CCCNC(=O)c1c2c(nc3ccccc13)-c1cc(OC)c(OC)cc1CC2`: the pKd in assay [1] is 5.55; in [3] it was less than 4.70. Besides, in [2], the Selectivity ratio was greater than 7.1. The ΔTm is 0.5 °C in assay [4]; 0.6 °C in [5]; 3.4 °C in assay [6]; 0.5 °C in assay [7]; 6.6 °C in assay [8]. Moreover, the pIC50 in the assay with K562, with BJ, with HeLa and with A549 was less than 4.30 each time.
